Data as given in a compilation of properties of binary mixtures (doi:10.1039/c8ra04127j).

Test: xn = mol fraction of the nth substance listed
Conditions: 100 kPa

C[N+](C)(C)CCC[n+]1ccccc1.N#C[N-]C#N.N#C[N-]C#N + CC#N
viscosity [mPa·s]
Conditions | x1 = 0.0999 | x1 = 0.1999 | x1 = 0.2998 | x1 = 0.3997 | x1 = 0.4999 | x1 = 0.6002 | x1 = 0.7001 | x1 = 0.7998 | x1 = 0.8997 | x1 = 1
283.15 K | 4.14 | 14.2 | 52.8 | 131 | 245 | 474 | – | 1385 | 2375 | 7557
288.15 K | 3.75 | 12.3 | 42.2 | 98 | 175 | 321 | 554 | 848 | – | –
293.15 K | 3.45 | – | 34.5 | – | 129 | 226 | 371 | 562 | 850 | –
298.15 K | 3.21 | 9.55 | 28.7 | 59.8 | 98 | 166 | 264 | 382 | – | 1306
303.15 K | – | 8.55 | – | 48.3 | 76.3 | 125 | 192 | – | 392 | 831
308.15 K | 2.83 | – | 21 | 39.6 | 61.3 | 96.7 | 146 | 200 | 286 | 558
313.15 K | 2.67 | 7.03 | 18.2 | 33.3 | 50 | 76.6 | 109 | 145 | 213 | 386
318.15 K | 2.54 | 6.43 | – | 28.2 | 43.5 | 63.9 | 89.7 | 118 | 161 | 281
323.15 K | – | 5.91 | 14.1 | 24.2 | 36.7 | 51.7 | 70.9 | 91.6 | 123 | –
328.15 K | 2.32 | 5.47 | 12.5 | 21 | 30.6 | 43.3 | 57.6 | 73.2 | 95.6 | 162
333.15 K | 2.23 | – | 11.2 | 18.4 | 27.6 | – | 48.5 | 60.3 | 75.3 | 127
